Results published in patent US20120015414A1, “Production of organic compounds” (priority 2010, published 2012).

Legend:
OleA [1] = target: T1, OleA (Xanthomonas campestris pv. campestris, UniProt Q8PDX2); assay: Release of CoASH thiol (DTNB) for assay of OleA substrate range; format: biochemical; conditions: for % of Theoretical / CoA Product: starting substrate 65 μM; for % of Theoretical: 65 μM of product is 100% of theoretical yield; for CoA Product: free coenzyme A detected with DTNB, average of triplicate determinations with standard error; for reaction stoichiometry, coenzyme A released per acyl-CoA consumed: substrate allowed to completely react; for reaction with OleA to release coenzyme A: incubation time in which palmitoyl-CoA reacts completely
T1 construct: His-tag (N); made in house; host or cells: E. coli One Shot BL21 (DE3), pET28b+
Method: Detecting the Release of CoASH Thiol for Assay of OleA Substrate Range. Release of the free thiol group of CoASH was detected by the addition of 5,5′-dithio-bis-(2-nitrobenzoic acid) (DTNB) measured spectrophotometrically at 412 nm (ε412=13,600 M^−1 cm^−1) (Alexson et al. 1988, J. Biol. Chem. 263:13564-13571; Ellman et al. 1958. Arch Biochem. Biophys. 74:443-450). […] DTNB was incubated with the reaction for 2 min and quantified spectrophotometrically.
Initial Defining of Substrate Specificity and Reaction Products of OleA. Enzymes catalyzing condensation or hydrolysis reactions with acyl-CoA substrates release coenzyme A that can be assayed colorimetrically using DTNB (Alexson et al. 1988. J. Biol. Chem. 263:13564-13571; Skaff et al. 2010. Anal. Biochem. 396:288-296; Sleeman et al. 2004. J. Biol. Chem. 279:6730-6736; Yashiro et al. 1995. Biochim. Biophys. 1258:288-96). […] With purified OleA, DTNB was used to determine the stoichiometry of coenzyme A formation and to begin to discern the substrate specificity of OleA.
First, the coenzyme A product stoichiometry was determined using either myristoyl-CoA or palmitoyl-CoA and allowing the substrate to completely react. With either substrate, the reaction stoichiometry was 1.0 mole of coenzyme A released for each mole of acyl-CoA consumed. In this manner, acyl-CoA chains of different lengths were tested with OleA using a time of incubation in which palmitoyl-CoA reacts completely as described in the Methods section. Under those conditions (Table III-2) palmitoyl-CoA reacted more completely than myristoyl-CoA.

OleA [2] = target: T1, OleA; assay: GC-MS/GC-FID product analysis of OleA reactions with acyl-CoA substrates; format: biochemical; conditions: peak area integration
Method: Subsequent experiments were conducted to examine if coenzyme A was formed as a consequence of acyl-group condensation, thioester bond hydrolysis, or some mixture of the two reactions. Based on previous observations (Beller et al. 2010. Appl. Environ. Microbiol. 76:1212-1223; Sukovich et al. 2010. Appl. Environ. Microbiol. 76:3850-62; Friedman et al. 2008. International Patent WO2008/113041), it was known that long-chain ketones were the observed condensation products. In subsequent experiments in this study, it was shown that β-keto acids are the initial products and those decarboxylate quantitatively to the corresponding ketone. In this context, reaction mixtures were solvent extracted and subjected to GC-MS to identify ketones derived from condensation and/or fatty acids derived from acyl chain hydrolysis.
In this context, experiments were conducted with mixtures of fatty acyl-CoA substrates. All pairwise combinations of C10, C12, C14, C16, saturated and C16 monounsaturated (C16:1) acyl-CoA substrates were incubated, extracted, and analyzed for products by GC-MS and GC-FID. In all, 15 product mixtures were analyzed. […] Only with C12 acyl condensation and C14 plus C16:1 condensation were the major products derived from a condensation of fatty acyl chains. In the case of C14 condensations (myristoyl-CoA), the ketone 14-heptacosanone was produced at only slightly lower levels than the hydrolysis product myristic acid.

OleA, OleC and OleD = target: T2, OleA, OleC and OleD (Xanthomonas campestris pv. campestris, UniProt Q8PDX2); assay: Hydrocarbon detection enzyme assay, OleA, OleC and OleD; format: biochemical; conditions: substrate incubated with OleA
T2 construct: His-tag (N); made in house
T2 sequence (Q8PDX2 1-338): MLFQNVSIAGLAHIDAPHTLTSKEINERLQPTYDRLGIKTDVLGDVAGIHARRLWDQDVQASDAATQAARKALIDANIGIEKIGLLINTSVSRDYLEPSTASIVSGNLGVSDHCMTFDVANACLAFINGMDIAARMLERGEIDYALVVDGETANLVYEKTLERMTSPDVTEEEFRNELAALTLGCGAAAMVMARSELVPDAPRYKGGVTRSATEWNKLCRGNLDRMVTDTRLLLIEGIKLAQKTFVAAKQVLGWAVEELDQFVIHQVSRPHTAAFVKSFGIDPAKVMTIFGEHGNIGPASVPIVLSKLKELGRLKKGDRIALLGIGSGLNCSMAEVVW
Method: (§1) Hydrocarbon Detection Enzyme Assay. […] Products were extracted with 250 μl ethyl acetate using 16-hentriacontanone ketone (Tokyo Kasei Kogyo Co., Ltd., Japan) as an internal standard. After vortexing and 5 min of gentle centrifugation, the top solvent layer was transferred to a glass vial and analyzed using a gas chromatograph equipped with a flame ionization detector HP 7890A (Hewlett Packard, Palo Alto) and mass spectrometer HP 5975C (GC-MS-FID). GC was conducted under the following conditions: helium gas, 1.75 ml/min; HP-1 ms column (100% dimethylsiloxane capillary; 30 m by 250 μm by 0.25 μm); temperature ramp, 100° C. to 320° C.; 10° C./min, hold at 320° C. for 5 min, 250° C. injection port, and split at the outlet between MS and FID. The mass spectrometer was run under the following conditions: electron impact at 70 eV and 35 μA. The flame ionization detector was set at 250° C. with hydrogen flow set at 30 ml/min, air set at 400 ml/min, and helium makeup gas set at 25 ml/min.
(§2) Role of OleA in olefin biosynthesis. […] Other Ole proteins were purified as described in the methods section and tested in admixture with OleA and with myristoyl-CoA as the substrate. […] The identities of the products were confirmed by mass spectrometry.

OleA and OleC = target: T3, OleA and OleC (Xanthomonas campestris pv. campestris, UniProt Q8PDX2); assay: Hydrocarbon detection enzyme assay, OleA and OleC in admixture; format: biochemical; conditions: substrate incubated with OleA and OleC
T3 construct: His-tag (N); made in house; host or cells: E. coli (OleA)
T3 sequence (Q8PDX2 1-338): T2 sequence (Q8PDX2 1-338)
Method: as §1, §2

OleC and OleD = target: T4, OleC and OleD (Xanthomonas campestris pv. campestris, UniProt Q8PDW5); assay: Hydrocarbon detection enzyme assay, OleC and OleD without OleA; format: biochemical; conditions: substrate incubated with OleC and OleD
T4 construct: His6-tag with thrombin site (implied by Ni-column purification); made in house; host or cells: E. coli One Shot BL21 (DE3) for OleD
Method: as §1
The identity of the compound was confirmed by the mass spectrum shown above the GC chromatogram in FIG. III-6A, with the major ion, m/z 378, representing the molecular ion.
Next, it was tested if the ketone 14-heptacosanone could also give rise to 14-heptacosene or any other discernible product.

Synechococcus [3] = assay: Effect of growth supplements of the type found in corn steep liquor on Synechococcus; format: cell-based; conditions: flasks supplemented
Description: The effects of growth supplements of the type found in corn steep liquor on the growth of Synechococcus and Shewanella were examined.

Synechococcus [4] = assay: Growth in BG11AN medium supplemented with lactic acid; format: cell-based
Description: To maintain the co-culture of the cyanobacterium (Synechococcus) and the heterotroph (Shewanella), a minimal medium was established that would support growth of both Shewanella and Synechococcus. We started with the preferred medium for Synechococcus, known as BG11. […] A modified Synechococcus minimal medium, denoted here as BG11AN medium, was used and supplemented with lactic acid to test both lactate inhibition and ammonia inhibition. BG11AN has ammonium nitrate at 1.5 g/L replacing the sodium nitrate used in BG11. Shewanella grew well in BG11AN medium. The Synechococcus grew in the BG11AN medium, not as well as in BG11, but acceptably. The cultures in BG11 AN were more of a yellow green than the deep green of the BG11 culture. […] In fact, it stimulated growth at levels up to 0.5 g/L. It was concluded that the BG11AN medium can be used for co-culture of Synechococcus and Shewanella in subsequent experiments.

[5] = Spontaneous decarboxylation of synthetic beta-keto acid; conditions: synthetic acid from hydrogenolysis of the benzyl ester, no enzyme

T4 sequence (Q8PDW5 2-337, added parts left off): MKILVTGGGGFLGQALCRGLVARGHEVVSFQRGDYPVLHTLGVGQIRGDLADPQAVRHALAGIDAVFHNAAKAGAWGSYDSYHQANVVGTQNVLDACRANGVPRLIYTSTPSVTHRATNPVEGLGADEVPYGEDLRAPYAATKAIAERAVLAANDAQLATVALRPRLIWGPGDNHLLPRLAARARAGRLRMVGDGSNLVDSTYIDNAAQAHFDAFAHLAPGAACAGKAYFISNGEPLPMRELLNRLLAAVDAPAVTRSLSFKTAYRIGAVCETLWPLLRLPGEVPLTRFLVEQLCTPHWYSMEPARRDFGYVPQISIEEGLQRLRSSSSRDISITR

| Compound | % of Theoretical (OleA [1]) | CoA Product (OleA [1]) | reaction with OleA to release coenzyme A (OleA [1]) | also measured |
| --- | --- | --- | --- | --- |
| CCCCCCCCCCCCCCCC(=O)SCCNC(=O)CCNC(=O)[C@H](O)C(C)(C)COP(=O)(O)OP(=O)(O)OC[C@H]1O[C@@H](n2cnc3c(N)ncnc32)[C@H](O)[C@@H]1OP(=O)(O)O [Palmitoyl-CoA] | 100% | 65.0 ± 0.9 µM |  | reaction stoichiometry, coenzyme A released per acyl-CoA consumed (OleA [1]): 1.0 mole of coenzyme A released for each mole of acyl-CoA consumed; Products, ketones (Cx) and fatty acids (FAx), in order of decreasing abundance (OleA [2]; second fatty acyl-CoA chain C16): FA16 > C31 |
| CCCCCCCCCC(=O)SCCNC(=O)CCNC(=O)[C@H](O)C(C)(C)COP(=O)(O)OP(=O)(O)OC[C@H]1O[C@@H](n2cnc3c(N)ncnc32)[C@H](O)[C@@H]1OP(=O)(O)O [Decanoyl-CoA] | 42% | 27.2 ± 1.6 µM | undergo reaction to release coenzyme A | Products, ketones (Cx) and fatty acids (FAx), in order of decreasing abundance (OleA [2]; second fatty acyl-CoA chain C10): FA10 > C19 |
| CCCCCCCC(=O)SCCNC(=O)CCNC(=O)[C@H](O)C(C)(C)COP(=O)(O)OP(=O)(O)OC[C@H]1O[C@@H](n2cnc3c(N)ncnc32)[C@H](O)[C@@H]1OP(=O)(O)O [Octanoyl-CoA] | 12% | 8.0 ± 2.2 µM | undergo reaction to release coenzyme A |  |
| CCCCCCCCCCCCCC(=O)SCCNC(=O)CCNC(=O)[C@H](O)C(C)(C)COP(=O)(O)OP(=O)(O)OC[C@H]1O[C@@H](n2cnc3c(N)ncnc32)[C@H](O)[C@@H]1OP(=O)(O)O [Myristoyl-CoA] | 97% | 63.2 ± 0.4 µM |  | products observed by GC-MS (OleA, OleC and OleD): the olefin 14-heptacosene (20.4 min) was observed in addition to the peak corresponding to 14-heptacosanone; reaction stoichiometry, coenzyme A released per acyl-CoA consumed (OleA [1]): 1.0 mole of coenzyme A released for each mole of acyl-CoA consumed; products observed by GC-MS (OleA and OleC): produced only 14-heptacosanone; Products, ketones (Cx) and fatty acids (FAx), in order of decreasing abundance (OleA [2]; second fatty acyl-CoA chain C14): FA14 > C27 |
| CCCCCCCCCCCC(=O)SCCNC(=O)CCNC(=O)[C@H](O)C(C)(C)COP(=O)(O)OP(=O)(O)OC[C@H]1O[C@@H](n2cnc3c(N)ncnc32)[C@H](O)[C@@H]1OP(=O)(O)O [Lauroyl-CoA] | 79% | 51.4 ± 1.9 µM | undergo reaction to release coenzyme A |  |
| CCCCCCCCCCCCCC(=O)CCCCCCCCCCCCC [14-heptacosanone] |  |  |  | products observed by GC-MS (OleC and OleD): 14-heptacosene was not detected |
| NC(=O)CC[C@H](N)C(=O)O [glutamine] |  |  |  | effect on growth of Synechococcus (Synechococcus [3]): slightly better growth |
| CCCCCCCCCCCCCCCCCC(=O)SCCNC(=O)CCNC(=O)[C@H](O)C(C)(C)COP(=O)(O)OP(=O)(O)OC[C@H]1O[C@@H](n2cnc3c(N)ncnc32)[C@H](O)[C@@H]1OP(=O)(O)O [Stearoyl-CoA] | 29% | 18.7 ± 1.8 µM | undergo reaction to release coenzyme A |  |
| N[C@@H](CCC(=O)O)C(=O)O [glutamate] |  |  |  | effect on growth of Synechococcus (Synechococcus [3]): slightly better growth |
| CC(=O)SCCNC(=O)CCNC(=O)[C@H](O)C(C)(C)COP(=O)(O)OP(=O)(O)OC[C@H]1O[C@@H](n2cnc3c(N)ncnc32)[C@H](O)[C@@H]1OP(=O)(O)O [Acetyl-CoA] |  |  | did not |  |
| CC(O)C(=O)O (centres unmarked) [Lactic acid] |  |  |  | level at which growth was not inhibited (Synechococcus [4]): ≤ 1 g/L; level at which growth was stimulated (Synechococcus [4]): up to 0.5 g/L |
| CCCCCCCCCCCCCC(=O)C(CCCCCCCCCCCC)C(=O)O (racemic) [2-myristoylmyristic acid] |  |  |  | stability, decarboxylation to 14-heptacosanone [5]: rapid decarboxylation; products observed by GC-MS (OleC and OleD): yielded 14-heptacosanone and the expected olefinic product from head-to-head condensation, 14-heptacosene |
| CCCCCC/C=C\CCCCCCCC(=O)SCCNC(=O)CCNC(=O)[C@H](O)C(C)(C)COP(=O)(O)OP(=O)(O)OC[C@H]1O[C@@H](n2cnc3c(N)ncnc32)[C@H](O)[C@@H]1OP(=O)(O)O [Palmitoleoyl-CoA] | 57% | 36.9 ± 0.9 µM | undergo reaction to release coenzyme A | Products, ketones (Cx) and fatty acids (FAx), in order of decreasing abundance (OleA [2]; second fatty acyl-CoA chain C16:1): FA16:1 > C31:2 |
